Experimental data published in US7739055B2, “Methods and systems for generating and evaluating peptides” (priority 2005, dated 2010).
Values after ≈ are worked out from the molar mass of the structure shown. Where two headings read alike, the source gives them in different places. Where a SMILES comes first, the peptide text is derived from it.

Legend:
[1] = first concentration that prohibits growth by OD at 24 hours, Table 1

Compound | MIC B. cereus (B. cereus; [1]) | MIC E. coli (Escherichia coli; 24 h) | MIC B. cereus (B. cereus) | MIC E. coli (Escherichia coli; [1]) | MIC B. cereus (B. cereus; 24 h)
CC(C)[C@H](N)C(=O)N[C@H](C(=O)N[C@@H](Cc1ccccc1)C(=O)N[C@@H](CCCNC(=N)N)C(=O)N[C@H](C(=O)N[C@@H](C)C(=O)N[C@@H](CO)C(=O)N[C@@H](CCCCN)C(=O)N[C@H](C(=O)N[C@@H](Cc1ccccc1)C(=O)N1CCC[C@H]1C(=O)N[C@@H](C)C(=O)N[C@H](C(=O)N[C@@H](Cc1ccc(O)cc1)C(=O)N[C@@H](CS)C(=O)N[C@H](C(=O)N[C@H](C(=O)N[C@@H](CO)C(=O)N[C@@H](CCCCN)C(=O)N[C@@H](CCCCN)C(=O)O)C(C)C)[C@@H](C)O)C(C)C)C(C)C)C(C)C)C(C)C [Peptide 2] (H-VVFRVASKVFPAVYCTVSKK-OH; N-terminus and C-terminus assumed) | + (MIC greater than 256 ug/mL) | 128 µg/mL (≈ 57.4 µM) | – | – | –
CC[C@H](C)[C@H](NC(=O)[C@H](CC(=O)O)NC(=O)[C@H](CCCCN)NC(=O)[C@@H](NC(=O)[C@H](CC(C)C)NC(=O)[C@H](CO)NC(=O)[C@H](CCSC)NC(=O)[C@H](CC(C)C)NC(=O)CN)C(C)C)C(=O)N[C@@H](C)C(=O)N[C@@H](CCCCN)C(=O)N[C@@H](CC(C)C)C(=O)N[C@@H](C)C(=O)N[C@@H](C)C(=O)N[C@@H](CCCCN)C(=O)N[C@@H](CCC(N)=O)C(=O)NCC(=O)N[C@@H](C)C(=O)N[C@@H](CCCCN)C(=O)N[C@@H](CCC(N)=O)C(=O)O [Peptide 9] (H-GLMSLVKDIAKLAAKQGAKQ-OH; N-terminus and C-terminus assumed) | + (MIC greater than 256 ug/mL) | 256 µg/mL (≈ 124 µM) | – | – | –
CC[C@H](C)[C@H](NC(=O)[C@@H](NC(=O)[C@H](CS)NC(=O)[C@H](Cc1ccc(O)cc1)NC(=O)[C@@H](NC(=O)[C@H](C)NC(=O)[C@@H]1CCCN1C(=O)[C@H](Cc1ccccc1)NC(=O)[C@@H](NC(=O)[C@H](CCCCN)NC(=O)[C@H](CO)NC(=O)[C@H](C)NC(=O)[C@H](CC(C)C)NC(=O)[C@H](CCCCN)NC(=O)CNC(=O)[C@H](CC(C)C)NC(=O)[C@H](C)N)C(C)C)C(C)C)[C@@H](C)O)C(=O)N[C@@H](CO)C(=O)N[C@@H](CCCNC(=N)N)C(=O)N[C@@H](CCCCN)C(=O)O [Peptide 23] (H-ALGKLASKVFPAVYCTISRK-OH; N-terminus and C-terminus assumed) | + (MIC greater than 256 ug/mL) | 128 µg/mL (≈ 59.5 µM) | – | – | –
CC[C@H](C)[C@H](NC(=O)[C@H](Cc1ccccc1)NC(=O)CN)C(=O)NCC(=O)N[C@@H](CCCCN)C(=O)N[C@@H](CC(C)C)C(=O)N[C@@H](C)C(=O)N[C@@H](CO)C(=O)N[C@@H](CCCCN)C(=O)N[C@H](C(=O)N[C@H](C(=O)N1CCC[C@H]1C(=O)N[C@@H](CO)C(=O)N[C@H](C(=O)N[C@@H](Cc1ccc(O)cc1)C(=O)N[C@@H](CS)C(=O)N[C@@H](CCCCN)C(=O)N[C@H](C(=O)N[C@H](C(=O)NCC(=O)O)[C@@H](C)O)C(C)C)C(C)C)C(C)C)C(C)C [Peptide 24] (H-GFIGKLASKVVPSVYCKVTG-OH; N-terminus and C-terminus assumed) | + (MIC greater than 256 ug/mL) | 128 µg/mL (≈ 62.3 µM) | – | – | –
CC[C@H](C)[C@H](NC(=O)[C@H](CCCCN)NC(=O)[C@H](Cc1ccccc1)NC(=O)[C@@H](NC(=O)[C@H](C)NC(=O)[C@@H]1CCCN1)C(C)C)C(=O)N[C@@H](C)C(=O)N[C@@H](CO)C(=O)N[C@@H](CCCCN)C(=O)N[C@H](C(=O)N[C@H](C(=O)N1CCC[C@H]1C(=O)N[C@@H](CO)C(=O)N[C@H](C(=O)N[C@@H](Cc1ccc(O)cc1)C(=O)N[C@@H](CS)C(=O)N[C@@H](CCCCN)C(=O)N[C@H](C(=O)N[C@@H](CO)C(=O)N[C@@H](CCCNC(=N)N)C(=O)O)C(C)C)C(C)C)C(C)C)C(C)C [Peptide 29] (H-PAVFKIASKVVPSVYCKVSR-OH; N-terminus and C-terminus assumed) | + (MIC greater than 256 ug/mL) | 128 µg/mL (≈ 58.8 µM) | – | – | –
CC(C)C[C@H](NC(=O)CNC(=O)[C@H](Cc1ccccc1)NC(=O)[C@H](CC(C)C)NC(=O)[C@H](C)NC(=O)CN)C(=O)N[C@@H](C)C(=O)N[C@@H](CO)C(=O)N[C@@H](CCCCN)C(=O)N[C@H](C(=O)N[C@@H](Cc1ccccc1)C(=O)N1CCC[C@H]1C(=O)N[C@@H](C)C(=O)N[C@H](C(=O)N[C@@H](Cc1ccccc1)C(=O)NCC(=O)N[C@@H](C)C(=O)N[C@@H](Cc1ccccc1)C(=O)N[C@@H](CCCCN)C(=O)N[C@@H](CCCCN)C(=O)O)C(C)C)C(C)C [Peptide 30] (H-GALFGLASKVFPAVFGAFKK-OH; N-terminus and C-terminus assumed) | + (MIC greater than 256 ug/mL) | 256 µg/mL (≈ 125 µM) | – | – | –
CC[C@H](C)[C@H](NC(=O)[C@H](CCSC)NC(=O)[C@H](CO)NC(=O)[C@@H](NC(=O)[C@H](CC(C)C)NC(=O)[C@H](CO)NC(=O)[C@@H]1CCCN1C(=O)[C@@H](NC(=O)[C@@H](NC(=O)[C@H](CCCCN)NC(=O)[C@H](CO)NC(=O)[C@H](C)NC(=O)[C@@H](NC(=O)[C@H](CCCNC(=N)N)NC(=O)CNC(=O)[C@@H](NC(=O)[C@H](Cc1ccccc1)NC(=O)[C@H](CO)NC(=O)[C@@H](N)CC(C)C)C(C)C)C(C)C)C(C)C)C(C)C)[C@@H](C)CC)C(=O)N[C@@H](CCCCN)C(=O)O [Peptide 55] (H-LSFVGRVASKVVPSLISMIK-OH; N-terminus and C-terminus assumed) | + (MIC greater than 256 ug/mL) | 256 µg/mL (≈ 120 µM) | – | – | –
CC(C)C[C@H](NC(=O)[C@H](CCCCN)NC(=O)[C@H](Cc1ccccc1)NC(=O)[C@@H](NC(=O)[C@H](C)NC(=O)[C@@H]1CCCN1C(=O)[C@@H](N)CC(C)C)C(C)C)C(=O)N[C@@H](C)C(=O)N[C@@H](CO)C(=O)N[C@@H](CCCCN)C(=O)N[C@H](C(=O)N[C@@H](Cc1ccccc1)C(=O)N1CCC[C@H]1C(=O)N[C@@H](C)C(=O)N[C@H](C(=O)N[C@@H](Cc1ccc(O)cc1)C(=O)N[C@@H](CS)C(=O)N[C@@H](CCCCN)C(=O)N[C@@H](C)C(=O)N[C@@H](CO)C(=O)O)C(C)C)C(C)C [Peptide 62] (H-LPAVFKLASKVFPAVYCKAS-OH; N-terminus and C-terminus assumed) | + (MIC greater than 256 ug/mL) | 128 µg/mL (≈ 59.8 µM) | – | – | –
CC[C@H](C)[C@H](NC(=O)[C@@H](NC(=O)[C@H](CCCCN)NC(=O)[C@H](C)NC(=O)[C@H](CC(C)C)NC(=O)[C@H](CCCCN)NC(=O)[C@H](CCCCN)NC(=O)CN)[C@@H](C)O)C(=O)N[C@@H](C)C(=O)N[C@@H](CCCCN)C(=O)N[C@@H](CCC(=O)O)C(=O)N[C@H](C(=O)N[C@@H](C)C(=O)N[C@@H](CCCCN)C(=O)N[C@@H](CCC(N)=O)C(=O)NCC(=O)N[C@@H](C)C(=O)N[C@@H](CCCCN)C(=O)N[C@@H](Cc1ccccc1)C(=O)N[C@@H](C)C(=O)O)C(C)C [Peptide 77] (H-GKKLAKTIAKEVAKQGAKFA-OH) | – | – | + (key: +: MIC greater than 256 ug/mL; ++: MIC greater than 128 ug/mL, not sufficiently soluble to test as 256 ug/mL) | 64 µg/mL (≈ 30.7 µM) | –
CC[C@H](C)[C@H](NC(=O)[C@@H](NC(=O)[C@H](CS)NC(=O)[C@H](Cc1ccc(O)cc1)NC(=O)[C@@H](NC(=O)[C@H](CO)NC(=O)[C@@H]1CCCN1C(=O)[C@@H](NC(=O)[C@@H](NC(=O)[C@H](CCCCN)NC(=O)[C@H](CO)NC(=O)[C@H](C)NC(=O)[C@H](CC(C)C)NC(=O)[C@H](CCCCN)NC(=O)[C@H](Cc1ccccc1)NC(=O)[C@@H](NC(=O)[C@@H](N)C(C)C)C(C)C)C(C)C)C(C)C)C(C)C)[C@@H](C)O)C(=O)N[C@H](C(=O)N[C@@H](CCCCN)C(=O)N[C@@H](CCCCN)C(=O)O)[C@@H](C)O [Peptide 88] (H-VVFKLASKVVPSVYCTITKK-OH; N-terminus and C-terminus assumed) | + (MIC greater than 256 ug/mL) | 256 µg/mL (≈ 116 µM) | – | – | –
CC[C@H](C)[C@H](NC(=O)[C@H](CC(C)C)NC(=O)CNC(=O)[C@@H](NC(=O)[C@@H](NC(=O)[C@H](C)NC(=O)[C@@H]1CCCN1C(=O)[C@@H](NC(=O)[C@@H](NC(=O)[C@H](CCCCN)NC(=O)[C@H](CO)NC(=O)[C@H](C)NC(=O)[C@H](CC(C)C)NC(=O)[C@H](CO)NC(=O)[C@H](Cc1ccccc1)NC(=O)[C@H](CC(C)C)NC(=O)[C@H](C)NC(=O)CN)C(C)C)C(C)C)C(C)C)[C@@H](C)CC)C(=O)N[C@@H](CCCCN)C(=O)N[C@@H](CCCCN)C(=O)O [Peptide 96] (H-GALFSLASKVVPAVIGLIKK-OH; N-terminus and C-terminus assumed) | – | – | – | + (MIC greater than 256 ug/mL) | 256 µg/mL (≈ 127 µM)
CC[C@H](C)[C@H](NC(=O)[C@H](CCSC)NC(=O)[C@H](C)NC(=O)[C@@H]1CCCN1C(=O)[C@@H](NC(=O)[C@@H](NC(=O)[C@H](CCCCN)NC(=O)[C@@H](NC(=O)[C@H](CC(C)C)NC(=O)CNC(=O)CNC(=O)[C@H](CC(C)C)NC(=O)[C@@H](N)Cc1ccccc1)[C@@H](C)CC)[C@@H](C)CC)C(C)C)C(=O)N[C@@H](CS)C(=O)N[C@@H](C)C(=O)N[C@H](C(=O)N[C@H](C(=O)N[C@@H](CCCCN)C(=O)N[C@@H](CCCCN)C(=O)N[C@@H](CS)C(=O)O)[C@@H](C)O)C(C)C [Ranalexin] (H-FLGGLIKIVPAMICAVTKKC-OH; N-terminus and C-terminus assumed) | – | 64 µg/mL (≈ 30.4 µM) | – | – | 32 µg/mL (≈ 15.2 µM)
AATGTGKTAAFALPVLERLI [Peptide 38] | + (MIC greater than 256 ug/mL) | – | – | + (MIC greater than 256 ug/mL) | –
AKKAQKSGAQTIVKIFAKGM [Shuffled 39] | + (MIC greater than 256 ug/mL) | – | – | + (MIC greater than 256 ug/mL) | –
ALFSLASKVVPSVFSMVTKK [Peptide 1] | + (MIC greater than 256 ug/mL) | – | – | + (MIC greater than 256 ug/mL) | –
ALVYAGIKKTAFLKVQKCDG [Shuffled 33] | + (MIC greater than 256 ug/mL) | – | – | + (MIC greater than 256 ug/mL) | –
FKVVISKPGLSVRVGTALVT [Shuffled 65] | ++ (MIC greater than 128 ug/mL, not sufficiently soluble to test as 256 ug/mL) | – | – | ++ (MIC greater than 128 ug/mL, not sufficiently soluble to test as 256 ug/mL) | –
FLPFVGRIASKVVPSVIGKV [Peptide 75] | + (MIC greater than 256 ug/mL) | – | – | + (MIC greater than 256 ug/mL) | –
FMKVLAVFGSVVTSAPKASK [Shuffled 31] | + (MIC greater than 256 ug/mL) | – | – | + (MIC greater than 256 ug/mL) | –
FVGGVASKVVPSVYCKVSKK [Peptide 85] | + (MIC greater than 256 ug/mL) | – | – | + (MIC greater than 256 ug/mL) | –
